Assay [1] concerns human pancreatic cells SU-86-86. The experiment in a line: XTT cell proliferation assay, SU-86-86. The conditions noted are these: 5 days incubation, read-out: Antiproliferative activity, Pancreas SU-86-86. It is filed as cell-based. As for the experimental part:
(§1) Exemplary compounds 1-8 were tested for anti-cancer activity in vitro using human renal cancer cells (ACHN and CAK-1), human pancreatic cells (BXPC3 and SU-86-86), human prostate cancer cell (DU14), human colon carcinoma cells (HT-29 and KM-12), leukemia cells (HL60), brain cancer/tumour cells (SK-A-AS, U87-MG), and human non-small cell lung cancer cells (H460). Compounds 1-8 are the specific embodiments of Formula (I) and Formula (IV) as described above in this application.
(§2) The cells were maintained as a monolayer in a growth medium; McCoy's 5A modified medium (Sigma, St. Louis, Mo.), supplemented with 2 mM L-glutamine (Gibco, Grand Island, N.Y.), 10% fetal bovine serum (FBS) (Multicell, WISENT Inc. St-Bruno, QC), antibiotic-antimycotic (Multicell), at 37° C. in a 5% CO2-humidified incubator. Cells were transferred onto 150 mm tissue culture plates and grown until sub-confluency (70-80%) prior to their use. The in vitro antiproliferative activity of compounds was evaluated by incubating the cells with varying concentrations of exemplary compounds as shown in Table 1 for 5 days. The efficacy of these compounds in this cell proliferation assay was measured based in the ability of live cells to reduce the tetrazolium salt XTT to orange colored compounds of formazan (XTT cell proliferation kit IT, Roche Applied Science, Montreal, QC).
For orientation: Tetrazolium dyes change colour on reduction, which living cells bring about.

Assay [2] concerns non-small cell lung cancer cells H226. The assay can be described thus: XTT cell proliferation assay, H226. The class given is cell-based, human. The following applies: 5 days incubation, read-out: Antiproliferative activity, NSCLC H226. As to the method: [The procedure below names another cell line; the source lists this cell line under the same test.] as §1, §2
In a further assay the test system is Glioblastoma (U87-MG). The experiment in a line: Glioblastoma (U87-MG) xenograft model. It is filed as in vivo, CD-1 female nude mice. The following applies: vs vehicle-treated control, FIG. 7. As for the experimental part: The ability of compound 1 to inhibit colon tumour growth in vivo was tested as follows. CD-1 female nude mice (7 mice per treatment group, 6-7 weeks) were injected […] with human colon adenocarcinoma cells HT-29 cells (3×10^6 cells in 0.1 ml PBS). Treatment of the mice with vehicle or 50 mg/kg/d of […] was initiated 5 days post-inoculation (size of tumours=20-40 mm^3) for 7-day cycles of five days followed by a 2 day break for 5 weeks. The size of the tumours was measured over the course of the experiment using calipers, and the weight of the tumours was measured after the animals were sacrificed.
The ability of compound 1 to inhibit renal cell carcinoma growth (see FIG. 4), to inhibit pancreatic carcinoma growth (FIG. 5), to inhibit large-cell lung carcinoma cell growth (FIG. 6), and to inhibit Glioblastoma cell growth (FIG. 7) was also tested following the general procedure as discussed above.

The subject of assay [3] is non-small cell lung cancer cells HOP-92. The assay can be described thus: XTT cell proliferation assay, HOP-92. The class given is cell-based, human. The following applies: 5 days incubation, read-out: Antiproliferative activity, NSCLC HOP-92. As for the experimental part: [The procedure below names another cell line; the source lists this cell line under the same test.] as §1, §2

Assay [4] concerns human renal cancer cells CAKI-1. The experiment in a line: XTT cell proliferation assay, CAKI-1. It is filed as cell-based. The conditions noted are these: 5 days incubation, read-out: Antiproliferative activity, Kidney CAKI-1. As for the experimental part: as §1, §2
Assay [5] has as its system Human Burkitt's lymphoma Raji cells. The assay can be described thus: Cell growth inhibition assay, Raji. The following applies: five days of incubation, XTT; read-out: IC50 Raji (hs). It is filed as cell-based. As for the experimental part:
In this study, compounds 1-8 were screened in vitro against a panel of four mouse lymphoma cell lines and two human lymphoma cell line for cell growth inhibition activity. Following treatment, half maximal inhibitory concentrations (IC50) were determined with the objective of selecting the most efficacious compounds for evaluation of in vitro absorption, distribution, metabolism, and excretion (ADME) screening.
Human Burkitt's lymphoma Raji cells (ATCC CCL-86) were grown in suspension in Roswell Park Memorial Institute (RPMI) 1640 medium supplemented with 10% fetal bovine serum (FBS), 10 mM HEPES KOH pH 7.4, and 2 mM sodium pyruvate at 37° C. in an atmosphere of 5% CO2 in air. Logarithmically growing cells were routinely sub-cultured twice weekly. Briefly, cells were collected by centrifugation, resuspended in pre-warmed media, and diluted 1:10 into a 75 cm^2 flask.
Cells were subcultured and 4×10^3 cells (in 50 μL) were transferred to each well in a Falcon 96-well tissue culture plate. Exemplary compounds were dissolved in pure dimethyl sulphoxide (DMSO) at a concentration of 10 mM. From this 10 mM stock solution, 12 successive serial dilutions were made in DMSO (2.5 fold dilutions), ranging from 0.52 μM to 10 mM. Using these stock dilutions, 5 μL of each were added to 500 μL of media, and 50 μL of this was added to the cells. The final concentrations being tested ranged from 0.0026 μM to 50 μM. Each concentration was tested in triplicate, and DMSO and untreated cells were also included as controls. After five days of incubation with the compounds, cell viability was determined using the XTT cell proliferation kit (Roche, Cat. No. 11 465 015 001). Following the XTT protocol, 4.5-24 hours after addition of the reagent, the plates were read in a μQuant 96-well plate spectrophotometer (Biotek Instruments Inc.) and the results analyzed to determine the IC50.

Data on one molecule can be found in patent US9309247B2, “2-substituted imidazo[4,5-D]phenanthroline derivatives and their use in the treatment of cancer” (Aptose Biosciences Inc., priority 2013, dated 2016).

SMILES strings stand for the structures.

`FC1(F)Oc2ccc(-c3nc4c5cccnc5c5ncccc5c4[nH]3)cc2O1` [Compound 1]: the IC50 was 0.18 µM in assay [1]; 0.41 µM in assay [2]; 0.16 µM in assay [3]; 0.156 µM in assay [4]; 0.153 µM in assay [5]. In the assay with Glioblastoma (U87-MG), the “inhibition of tumour growth, as measured by tumour size” value is “able to inhibit tumour growth”.
